Each block holds one molecule with its values, some of them ahead of it. The source made the active and inactive calls. The rule behind the calls is not given here.
Legend:
[1] = molecular target: Hypoxia-inducible factor 1-alpha (Homo sapiens) (UniProt Q16665); assay: Stabilization of HIF-1alpha in human HeLa cells at 50 uM incubated for 2 hrs by Western blot analysis relative to VH298; type: cell-based
[2] = molecular target: Hypoxia-inducible factor 1-alpha (Homo sapiens) (UniProt Q16665); assay: Stabilization of HIF-1alpha in HEK293 cells at 50 uM incubated for 2 hrs by Western blot analysis relative to VH298; type: cell-based
[3] = molecular target: Hypoxia-inducible factor 1-alpha (Homo sapiens) (UniProt Q16665); assay: Stabilization of hydroxylated HIF-1alpha in HEK293 cells at 50 uM incubated for 2 hrs by Western blot analysis relative to VH298; type: cell-based
[4] = molecular target: Hypoxia-inducible factor 1-alpha (Homo sapiens) (UniProt Q16665); assay: Stabilization of hydroxylated HIF-1alpha in human HeLa cells at 50 uM incubated for 2 hrs by Western blot analysis relative to VH298; type: cell-based
[5] = molecular target: Hypoxia-inducible factor 1-alpha (Homo sapiens) (UniProt Q16665); assay: Induction of HIF-1alpha transcription activity in human HeLa cells incubated for 32 hrs by HRE-luciferase based assay; type: cell-based
[6] = system: HeLa; assay: Upregulation of hydroxylated HIF-1alpha level in human HeLa cells at 10 to 100 uM incubated for 1 hr by immunoblot analysis; type: functional, cell-based; conditions: dose 10-100 µM
[7] = molecular target: Hypoxia-inducible factor 1-alpha (Homo sapiens) (UniProt Q16665); assay: Induction of HIF-1alpha transcription activity in human HeLa cells assessed as increase in CA9 mRNA level at 50 uM incubated for 16 hrs by RT-qPCR analysis; type: cell-based
[8] = molecular target: Hypoxia-inducible factor 1-alpha (Homo sapiens) (UniProt Q16665); assay: Induction of HIF-1alpha transcription activity in human U2OS cells incubated for 32 hrs by HRE-luciferase based assay; type: cell-based
[9] = system: HeLa; assay: Upregulation of HIF-1alpha level in human HeLa cells at 10 to 100 uM incubated for 1 hr by immunoblot analysis; type: functional, cell-based; conditions: dose 10-100 µM
[10] = molecular target: T1, von Hippel-Lindau disease tumor suppressor (Homo sapiens, UniProt P40337); assay: Inhibition of NanoLuc-fused VHL (unknown origin) transfected in live HEK293 cells using NanoGlo substrate incubated for 30 mins by tracer based NanoBRET assay; type: cell-based
[11] = molecular target: Von Hippel-Lindau disease tumor suppressor/Elongin B/Elongin C (Homo sapiens) (UniProt P40337+Q15370+Q15369); assay: Binding affinity to biotinylated VHL/Elongin B/Elongin C (unknown origin) immobilized in SA sensor chip assessed as second-order on-rate constant for association (Kon) by SPR analysis; type: protein-complex assay
[12] = molecular target: T2, Von Hippel-Lindau disease tumor suppressor/Elongin B/Elongin C (Homo sapiens, UniProt P40337); assay: Binding affinity to N-terminal His6-tagged VHL (54 to 213 residues)/Elongin B (1 to 104 residues)/Elongin C (17 to 112 residues) (unknown origin) expressed in Escherichia coli BL21(DE3) cells assessed as dissociation constant by ITC analysis
[13] = molecular target: T2, Von Hippel-Lindau disease tumor suppressor/Elongin B/Elongin C; assay: Inhibition of VHL/Elongin B/Elongin C (unknown origin) using FAM-DEALA-Hyp-YIPD as substrate by fluorescence polarization assay; type: protein-complex assay
[14] = molecular target: T2, Von Hippel-Lindau disease tumor suppressor/Elongin B/Elongin C; assay: Binding affinity to VHL (54 to 213 residues)/N-terminal Avi-tagged biotinylated-Elongin B (1 to 104 residues)/Elongin C (17 to 112 residues) (unknown origin) expressed in Escherichia coli cells immobilized in SA sensor chip assessed as dissociation constant by SPR analysis
[15] = molecular target: Hypoxia-inducible factor 1-alpha (Homo sapiens) (UniProt Q16665); assay: Induction of HIF-1alpha transcription activity in human HeLa cells at 150 uM incubated for 32 hrs by HRE-luciferase based assay; type: cell-based
[16] = molecular target: Hypoxia-inducible factor 1-alpha (Homo sapiens) (UniProt Q16665); assay: Induction of HIF-1alpha transcription activity in human U2OS cells at 150 uM incubated for 32 hrs by HRE-luciferase based assay; type: cell-based
[17] = system: HeLa; assay: Upregulation of hydroxylated HIF-1alpha level in human HeLa cells at 50 uM incubated for 1 hr by immunoblot analysis; type: functional, cell-based
[18] = system: HeLa; assay: Upregulation of HIF-1alpha level in human HeLa cells at 50 uM incubated for 1 hr by immunoblot analysis; type: functional, cell-based
[19] = molecular target: T2, Von Hippel-Lindau disease tumor suppressor/Elongin B/Elongin C; assay: Binding affinity to biotinylated VHL/Elongin B/Elongin C (unknown origin) immobilized in SA sensor chip assessed as dissociation constant by SPR analysis; type: protein-complex assay
[20] = molecular target: T1, von Hippel-Lindau disease tumor suppressor; assay: Inhibition of NanoLuc-fused VHL (unknown origin) transfected in permeabilized HEK293 cells using NanoGlo substrate incubated for 30 mins by tracer based NanoBRET assay; type: cell-based

Chain of Hypoxia-inducible factor 1-alpha (Homo sapiens) (Q16665 whole entry, looked up): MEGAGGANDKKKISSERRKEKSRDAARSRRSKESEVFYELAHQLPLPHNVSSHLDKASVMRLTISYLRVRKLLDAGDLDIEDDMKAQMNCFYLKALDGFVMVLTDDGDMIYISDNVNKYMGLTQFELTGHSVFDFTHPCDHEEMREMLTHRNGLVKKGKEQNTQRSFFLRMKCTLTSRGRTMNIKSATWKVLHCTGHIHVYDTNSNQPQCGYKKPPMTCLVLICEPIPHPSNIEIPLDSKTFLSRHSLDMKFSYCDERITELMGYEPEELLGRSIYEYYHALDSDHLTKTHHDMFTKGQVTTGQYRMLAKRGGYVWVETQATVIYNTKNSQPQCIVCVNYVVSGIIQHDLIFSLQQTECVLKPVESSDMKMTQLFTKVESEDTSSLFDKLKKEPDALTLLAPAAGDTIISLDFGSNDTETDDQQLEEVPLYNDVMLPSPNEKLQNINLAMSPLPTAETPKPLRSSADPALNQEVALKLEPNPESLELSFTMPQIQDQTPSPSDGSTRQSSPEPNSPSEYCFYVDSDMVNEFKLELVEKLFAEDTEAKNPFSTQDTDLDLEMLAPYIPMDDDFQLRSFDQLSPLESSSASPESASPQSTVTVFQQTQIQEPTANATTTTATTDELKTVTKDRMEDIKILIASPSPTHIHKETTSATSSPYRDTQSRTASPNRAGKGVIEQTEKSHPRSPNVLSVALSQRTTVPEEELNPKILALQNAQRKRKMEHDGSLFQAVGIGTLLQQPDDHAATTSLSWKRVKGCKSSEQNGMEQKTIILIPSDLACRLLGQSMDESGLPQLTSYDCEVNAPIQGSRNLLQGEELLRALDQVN
T2 sequence (P40337 whole entry, looked up, the tested form may be a part): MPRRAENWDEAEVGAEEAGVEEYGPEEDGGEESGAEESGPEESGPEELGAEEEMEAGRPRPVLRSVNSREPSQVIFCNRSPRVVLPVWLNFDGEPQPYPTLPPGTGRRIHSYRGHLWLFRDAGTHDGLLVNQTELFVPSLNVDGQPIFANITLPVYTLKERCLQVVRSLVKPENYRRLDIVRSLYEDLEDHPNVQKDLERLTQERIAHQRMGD
T1 sequence (P40337 whole entry, the tested form may be a part): as the sequence (P40337 whole entry, looked up, the tested form may be a part) above
Chain of Von Hippel-Lindau disease tumor suppressor/Elongin B/Elongin C (Homo sapiens) (P40337 whole entry, looked up, the tested form may be a part): as above
Chain of Von Hippel-Lindau disease tumor suppressor/Elongin B/Elongin C (Homo sapiens) (Q15369 whole entry, looked up, the tested form may be a part): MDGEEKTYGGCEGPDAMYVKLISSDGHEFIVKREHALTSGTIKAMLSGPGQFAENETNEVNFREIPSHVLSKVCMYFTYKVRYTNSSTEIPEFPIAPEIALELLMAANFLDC
Chain of Von Hippel-Lindau disease tumor suppressor/Elongin B/Elongin C (Homo sapiens) (Q15370 whole entry, looked up, the tested form may be a part): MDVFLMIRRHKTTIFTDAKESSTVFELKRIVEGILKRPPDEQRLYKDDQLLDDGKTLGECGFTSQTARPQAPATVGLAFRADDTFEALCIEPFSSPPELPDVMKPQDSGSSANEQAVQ

- Activity [5]: Dose-Dependent Effect
- Activity [1]: 128%
- Activity [7]: Active
- Activity [8]: Dose-Dependent Effect
- Activity [2]: 145%
- Activity [3]: 137%
- Activity [4]: 179%
Structure (SMILES): COc1cc(-c2scnc2C)c(F)cc1[C@H](C)NC(=O)[C@@H]1C[C@@H](O)CN1C(=O)[C@@H](NC(=O)C1(F)CC1)C(C)(C)C
- Activity [6]: Active
- Activity [9]: Active

- Activity [1]: 155%
- IC50 [10]: 0.366 µM
- Activity [2]: 152%
- K [11]: 1 10^6/M/s
- Activity [3]: 137%
- Activity [4]: 217%
Structure (SMILES): Cc1cc(-c2scnc2C)c(F)cc1[C@H](C)NC(=O)[C@@H]1C[C@@H](O)CN1C(=O)[C@@H](NC(=O)C1(F)CC1)C(C)(C)C

- Activity [1]: 120%
- Activity [2]: 92%
- K [11]: 1 10^6/M/s
- Activity [3]: 102%
- Activity [4]: 177%
Structure (SMILES): Cc1ncsc1-c1ccc([C@H](C)NC(=O)[C@@H]2C[C@@H](O)CN2C(=O)[C@@H](NC(=O)C2(F)CC2)C(C)(C)C)cc1F

- Activity [1]: 124%
- Activity [2]: 110%
- K [11]: 1 10^6/M/s
- Activity [3]: 76%
- Kd [19]: 0.072 µM
- Activity [4]: 153%
Structure (SMILES): Cc1cc(-c2scnc2C)c(F)cc1CNC(=O)[C@@H]1C[C@@H](O)CN1C(=O)[C@@H](NC(=O)C1(F)CC1)C(C)(C)C

- Activity [5]: Dose-Dependent Effect
- Activity [1]: 182%
- IC50 [10]: 0.164 µM
- Activity [7]: Active
- Activity [8]: Dose-Dependent Effect
- Activity [2]: 224%
- K [11]: 1 10^6/M/s
- Activity [3]: 208%
- Activity [4]: 263%
- IC50 [20]: 0.122 µM
Structure (SMILES): Cc1cc(-c2scnc2C)ccc1[C@H](C)NC(=O)[C@@H]1C[C@@H](O)CN1C(=O)[C@@H](NC(=O)C1(F)CC1)C(C)(C)C
- Activity [6]: Active
- Activity [9]: Active

- Activity [1]: 95%
- Activity [2]: 73%
- K [11]: 1 10^6/M/s
- Activity [3]: 68%
- Activity [4]: 98%
Structure (SMILES): COc1cc(-c2scnc2C)c(F)cc1CNC(=O)[C@@H]1C[C@@H](O)CN1C(=O)[C@@H](NC(=O)C1(F)CC1)C(C)(C)C

Second part, the molecule before the results:

Structure (SMILES): Cc1ncsc1-c1ccc([C@H](C)NC(=O)[C@@H]2C[C@@H](O)CN2C(=O)[C@@H](NC(=O)C2(C#N)CC2)C(C)(C)C)cc1F
- Activity [1]: 105%
- Activity [2]: 48%
- Activity [3]: 52%
- Activity [4]: 123%

Structure (SMILES): Cc1ncsc1-c1ccc(CNC(=O)[C@@H]2C[C@@H](O)CN2C(=O)[C@@H](NC(=O)C2(C#N)CC2)C(C)(C)C)cc1
- Activity [5]: Dose-Dependent Effect
- Activity [7]: Active
- Activity [8]: Dose-Dependent Effect

Structure (SMILES): Cc1cc(-c2scnc2C)ccc1CNC(=O)[C@@H]1C[C@@H](O)CN1C(=O)[C@@H](NC(=O)C1(F)CC1)C(C)(C)C
- Activity [1]: 116%
- Activity [2]: 78%
- K [11]: 1 10^6/M/s
- Activity [3]: 69%
- Activity [4]: 120%

Structure (SMILES): CC(=O)N[C@H](C(=O)N1C[C@H](O)[C@H](F)[C@H]1C(=O)NCc1ccc(-c2scnc2C)cc1)C(C)(C)C
- Kd [12]: 0.244 µM

Structure (SMILES): Cc1ncsc1-c1ccc(CNC(=O)[C@@H]2C[C@@H](O)CN2C(=O)Cc2cccc(N)c2C)cc1
- IC50 [13]: 0.9 µM

Structure (SMILES): Cc1cc(-c2scnc2C)ccc1CNC(=O)[C@@H]1C[C@@H](O)CN1C(=O)[C@@H](NC(=O)C1(C#N)CC1)C(C)(C)C
- Activity [1]: 89%
- Activity [2]: 78%
- Activity [3]: 66%
- Activity [4]: 88%

Structure (SMILES): CC(=O)N[C@H](C(=O)N1C[C@H](O)C[C@H]1C(=O)NCc1ccc(-c2scnc2C)c(C(F)(F)F)c1)C(C)(C)C
- Kd [14]: 2.99 µM

Structure (SMILES): Cc1ncsc1-c1ccc(CNC(=O)[C@@H]2C[C@H](O)CN2C(=O)[C@@H](NC(=O)C2(C#N)CC2)C(C)(C)C)cc1
- Activity [15]: inactive
- Activity [16]: inactive
- Activity [17]: inactive
- Activity [18]: inactive

Structure (SMILES): CC(=O)N[C@H](C(=O)N1C[C@H](O)C[C@H]1C(=O)NCc1ccc(-c2scnc2C)cc1C(F)(F)F)C(C)(C)C
- Kd [14]: 0.268 µM

Structure (SMILES): Cc1ncsc1-c1ccc(CNC(=O)[C@@H]2C[C@@H](O)CN2C(=O)[C@@H](NC(=O)C2(F)CC2)C(C)(C)C)cc1F
- Activity [1]: 107%
- Activity [2]: 89%
- K [11]: 1 10^6/M/s
- Activity [3]: 75%
- Activity [4]: 108%

Structure (SMILES): Cc1ncsc1-c1ccc(CNC(=O)[C@@H]2C[C@@H](O)CN2C(=O)[C@@H](NC(=O)C2(C#N)CC2)C(C)(C)C)cc1F
- Activity [1]: 83%
- Activity [2]: 18%
- Activity [3]: 20%
- Activity [4]: 74%

Structure (SMILES): Cc1cc(-c2scnc2C)ccc1[C@H](C)NC(=O)[C@@H]1C[C@@H](O)CN1C(=O)[C@@H](NC(=O)C1(C#N)CC1)C(C)(C)C
- Activity [1]: 155%
- Activity [2]: 90%
- Activity [3]: 110%
- Activity [4]: 221%

From ChEMBL document CHEMBL5365485 (J Med Chem, 2023)
